Reference: ChEMBL document CHEMBL1129576, “Nucleosides and nucleotides. 158. 1-(3-C-ethynyl-beta-D-ribo-pentofuranosyl)-cytosine, 1-(3-C-ethynyl-beta-D-ribo-pentofuranosyl)uracil, and their nucleobase analogues as new potential multifunctional antitumor nucleosides with a broad spectrum of activity” (J Med Chem, 1996)

Assays:
[1] = tested on: KB; assay: In vitro tumor cell growth inhibitory activity against human nasopharyngeal KB cell lines; assay type: functional, cell-based
[2] = tested on: L1210; assay: In vitro tumor cell growth inhibitory activity against mouse leukemia L1210 cell lines.; assay type: functional, cell-based

Row | IC50 [1] | IC50 [2] | Compound
1 | 830 nM | 690 nM | C#C[C@@]1(O)[C@@H](CO)O[C@@H](n2cnc3c(N)ncnc32)[C@@H]1O
2 | > 300000 nM | > 300000 nM | C#C[C@@]1(O)[C@@H](CO)O[C@@H](n2cc(C)c(=O)[nH]c2=O)[C@@H]1O
